Test: xn = mol fraction of the nth substance listed
Conditions: 101.3 kPa, Liquid; for viscosity: Concentric cylinders viscometry; for mass density: Vibrating tube method

CCN.Cl [ethylammonium chloride] + CC(N)=O
Conditions	mass density, 313.2 K [kg/m3]	mass density, 323.2 K [kg/m3]	mass density, 333.2 K [kg/m3]	mass density, 343.2 K [kg/m3]	mass density, 353.2 K [kg/m3]	viscosity, 313.2 K [mPa·s]	viscosity, 323.2 K [mPa·s]	viscosity, 333.2 K [mPa·s]	viscosity, 343.2 K [mPa·s]	viscosity, 353.2 K [mPa·s]
x1 = 0.252	1041	1034.3	1027.6	1020.9	1014.2	32.6	27.8	21.9	18.4	15.2
x1 = 0.337	1042.8	1036.4	1030	1023.7	1017.3	58	39.2	29.1	23.3	18.6
x1 = 0.5	1043.8	1037.9	1032	1026.2	1020.4	71.5	48.4	35.8	28.2	23.5
